# Like-named read-outs stand apart in the source and are kept apart here.
# Assays:
# [1] = system: patients with fibromyalgia
# Text: Quantification of improvement may be measured according to methods known in the art. For example, pain may be measured using tender point count, the McGill Pain Questionnaire, the Arthritis Impact Measurement Scales (AIMS), the Sickness Impact Profile (SIP), the Health Assessment Questionnaire (HAQ) functional disability index, the Symptom Checklist-90R, and dolorimeter scores. […] (Alarcon, Graciela, et al., “Advances in the Treatment of Fibromyalgia: Current Status and Future Directions”, Am. J. Med. Sciences, 315:397-404 (1998).)
# (§1) The quality of sleep (“sleep disturbance”) may be determined, inter alia, by asking the patient if he/she awakened tired or nonrefreshed “never,” “seldom,” “often or usually,” or “always.” Replies of “often or usually” or “always” may be scored as positive and other replies as negative. Patients reports of well-being or relief from “zombie” or “spacey” feelings, feelings of being “run down,” and having difficultly concentrating during waking hours are indications of better quality of sleep or deep, refreshing sleep.
# They were on a dose of ⅓ tablet of cyclobenzaprine (3 33 mg).
# patient four, a person homemaker, presented with complaints of chest pain previously attributed to their known history of mitral valve prolapse. They also complained of a several year history of fatigue.
# patient two, a active grandparent, presented with the new onset of cervical and lumbar muscular pains associated with poor quality sleep and fatigue. The patient was diagnosed with fibromyalgia.
# patient seven, a person homemaker, presented with complaints of diffuse pain and fatigue.
# patient three, a person homemaker, presented with complaints of right trapezius spasm. They had recently been started on paroxetine, 20 mg p.o. qd for mild depression, and had also noted disrupted sleep quality with frequent awakening with resultant fatigue and daytime somnolence. […] They were diagnosed with fibromyalgia and was begun on cyclobenzaprine 10 mg p.o. qHS for the diagnosis of fibromyalgia and possible sleep disturbance due to the SSRI paroxetine.
# patient one, a person homemaker, had recently given birth to a healthy baby, and in during the later stages of pregnancy and in the post-partem period noted fatigue and exhaustion associated with multiple areas of muscular soreness.
# patient six, a executive, presented with complaints of “burning pains” in their muscles, associated with sleep disturbance with frequent awakening and resultant fatigue.
# patient five, a executive, had been tried on multiple medications by a “fibromyalgia specialist,” who according to the patient had performed over $2,000 in blood tests, diagnosing “yeast infection in the blood” and multiple allergies.
# [2] = system: fibromyalgia patients; conditions: five mgs per day; some fibromyalgia patients; anecdotal; cited from earlier work
# [3] = system: fibromyalgia patients; conditions: twenty to forty mgs per day; twelve fibromyalgia patients; cited from earlier work
# [4] = system: fibromyalgia patients; conditions: cited from earlier work
# [5] = system: patients with sleep disturbance; conditions: single patient report
# Text: as §1
# [6] = system: cyclobenzaprine-treated patients; conditions: cited from earlier work
# [7] = ⅓ tablet (3 33 mg), single patient report
Compound,"Response to trial of nortriptyline ([1]; fibromyalgia patient not helped by cyclobenzaprine 2.5 mg, dose not given)",Response to treatment [2],Alpha non-REM EEG sleep anomaly and mood ratings [3],Pain (tender point count and dolorimetry) [3],"Symptom response ([1]; 10 mg p.o. qHS, single patient report)","Course after stopping cyclobenzaprine ([1]; discontinuation of ¼ tablet (2.5 mg), single patient report)","Effect on sleep disturbance, fatigue and diffuse pain ([1]; less than 5 mg/day qHS, applicant's summary for many patients)","Symptom response ([1]; ½ tablet (5 mg) p.o. qHS, single patient report)","Side effects [1, 7]","Symptom response [1, 7]",Difference in efficacy between regimens ([4]; 10 mg/day vs 30 mg/day),"Tender points, quality of sleep and other symptoms ([4]; 10 mg/day)","Tender points, quality of sleep and other symptoms ([4]; 30 mg/day)",Sleep and energy response ([5]; ¼ to ½ tablet (2.5-5 mg)),Side effects ([5]; ½ tablet (5 mg)),Less common side effects ([6]; cyclobenzaprine treatment),Organ toxicity ([6]; recommended doses),Toxic effects on overdose ([6]; three individuals who ingested between 260 to 900 mg)
CNCCC=C1c2ccccc2CCc2ccccc21 [nortriptyline],did well,,,,,,,,,,,,,,,,,
"CN(C)CCC=C1c2ccccc2C=Cc2ccccc21 [cyclobenzaprine, 3-(5H-Dibenzo[a,d]cyclohepten-5-ylidene)-N,N-dimethyl-1-propanamine]",,responded “favorably”,did not favorably change,did not experience decreased pain,helping their muscular pains,immediate return of all of their previous symptoms,surprisingly effective at treating the sleep disturbance,symptoms abated,no adverse effects,alleviated their symptoms,no significant difference in efficacy,"decline in the number of tender points and improvement in the quality of sleep, anxiety, fatigue, irritable bowel syndrome and stiffness","decline in the number of tender points and improvement in the quality of sleep, anxiety, fatigue, irritable bowel syndrome and stiffness","improved sleep and increased energy, with resolution of their daytime somnolence",“grogginess” during the day,"nausea, tiredness, constipation, blurred vision, nervousness, confusion, abdominal pain and discomfort",No indications of organ toxicity,Toxic effects were reported

# — patent US6541523B2, “Methods for treating or preventing fibromyalgia using very low doses of cyclobenzaprine” (Vela Pharmaceuticals, Inc., priority 1999, dated 2003)
